Measured values: patent publication US9795139B2, “Molecules having pesticidal utility, and intermediates, compositions, and processes, related thereto” (priority 2015, dated 2017)

Columns and labels:
[1] = test system: Beet Armyworm (Spodoptera exigua, LAPHEG); test: Bioassay on Beet Armyworm (BAW), 128-well diet tray assay; format: in vivo; details: 168 h, 50 μg/cm^2 on artificial diet, second instar larvae, 25° C., five to seven days, average of eight wells, read-out: BAW % Control (or Mortality) rating
Protocol: (§1) Certain molecules disclosed in this document were tested against BAW and CL using procedures described in the following examples. In the reporting of the results, the “BAW & CL Rating Table” was used (See Table Section).
Bioassays on BAW were conducted using a 128-well diet tray assay. One to five second instar BAW larvae were placed in each well (3 mL) of the diet tray that had been previously filled with approximately 1.5 mL of artificial diet to which 50 μg/cm^2 of the test molecule (dissolved in 50 μL of 90:10 acetone-water mixture) had been applied (to each of eight wells) and then allowed to dry. Trays were covered with a clear self-adhesive cover, vented to allow gas exchange, and held at 25° C., 14:10 light-dark for five to seven days. Percent mortality was recorded for the larvae in each well; activity in the eight wells was then averaged. The results are indicated in the table entitled “Table ABC: Biological Results” (See Table Section).

[2] = test system: Cabbage Looper (Trichoplusia ni, TRIPNI); test: Bioassay on Cabbage Looper (CL), 128-well diet tray assay; format: in vivo; details: 168 h, 50 μg/cm^2 on artificial diet, second instar larvae, 25° C., five to seven days, average of eight wells, read-out: CL % Control (or Mortality) rating
Protocol: as §1
Bioassays on CL were conducted using a 128-well diet tray assay. one to five second instar CL larvae were placed in each well (3 mL) of the diet tray that had been previously filled with 1 mL of artificial diet to which 50 μg/cm^2 of the test molecule (dissolved in 50 μL of 90:10 acetone-water mixture) had been applied (to each of eight wells) and then allowed to dry. Trays were covered with a clear self-adhesive cover, vented to allow gas exchange, and held at 25° C., 14:10 light-dark for five to seven days. Percent mortality was recorded for the larvae in each well; activity in the eight wells was then averaged. The results are indicated in the table entitled “Table ABC: Biological Results” (See Table Section).

**Q.** Which mortality at 50 µg/cm2 [1] does the source give for `N#CC1(NC(=O)c2cc(NC(=O)[C@H]3[C@H](c4ccc(F)c(Cl)c4)C3(Cl)Cl)ccc2Cl)CC1` (relative stereo) [PF3, trans-2-Chloro-N-(1-cyanocyclopropyl)-5-(2,2-dichloro-3-(3-chloro-4-fluorophenyl)cyclopropane-1-carboxamido)benzamide] here?
**A.** 50 to 100%

**Q.** What about the mortality at 50 µg/cm2 [2] of the same compound?
**A.** 50 to 100%

**Q.** With `O=C(NC1CC(F)(F)C1)c1cc(NC(=O)[C@H]2[C@H](c3cc(C(F)(F)F)cc(C(F)(F)F)c3)C2(Cl)Cl)ccc1Cl` (relative stereo) [Molecule F24, trans-5-(3-(3,5-Bis(trifluoromethyl)phenyl)-2,2-dichlorocyclopropanecarboxamido)-2-chloro-N-(3,3-difluorocyclobutyl)benzamide] as the compound, how does the mortality at 50 µg/cm2 [1] read?
**A.** 50 to 100%

**Q.** What about the mortality at 50 µg/cm2 [2] of the same compound?
**A.** 50 to 100%

**Q.** Which results are given for `O=C(NC1CC(F)(F)C1)c1cc(NC(=O)[C@H]2[C@H](c3cc(Cl)c(F)c(Cl)c3)C2(Cl)Cl)ccc1Cl` (relative stereo) [Molecule F30, trans-2-Chloro-5-(2,2-dichloro-3-(3,5-dichloro-4-fluorophenyl)cyclopropanecarboxamido)-N-(3,3-difluorocyclobutyl)benzamide]?
**A.** mortality at 50 µg/cm2 [1]: 50 to 100%; mortality at 50 µg/cm2 [2]: 50 to 100%

**Q.** How did the mortality at 50 µg/cm2 [1] turn out when `O=C(NC1C[S+]([O-])C1)c1cc(NC(=O)C2C(c3cc(Cl)c(Cl)c(Cl)c3)C2(Cl)Cl)ccc1Cl` (single isomer, unassigned) [Molecule F56, trans-2-chloro-5-(2,2-dichloro-3-(3,4,5-trichlorophenyl)cyclopropanecarboxamido)-N-(1-oxidothietan-3-yl)benzamide] was run?
**A.** 50 to 100%

**Q.** And the mortality at 50 µg/cm2 [2]?
**A.** 50 to 100%

**Q.** Which results are given for `N#CC1(NC(=O)c2cc(NC(=O)[C@H]3[C@H](c4cc(Br)cc(Br)c4)C3(Cl)Cl)ccc2Cl)CC1` (relative stereo) [Molecule F29, trans-2-Chloro-N-(1-cyanocyclopropyl)-5-(2,2-dichloro-3-(3,5-dibromophenyl)cyclopropanecarboxamido)benzamide]?
**A.** mortality at 50 µg/cm2 [1]: 50 to 100%; mortality at 50 µg/cm2 [2]: 50 to 100%

**Q.** Which results are given for `Cc1c(Cl)cc([C@H]2[C@H](C(=O)Nc3ccc(Cl)c(C(=O)NC4(C#N)CC4)c3)C2(Cl)Cl)cc1Cl` (relative stereo) [Molecule F49, trans-2-Chloro-N-(1-cyanocyclopropyl)-5-(2,2-dichloro-3-(3,5-dichloro-4-methylphenyl)cyclopropanecarboxamido)benzamide]?
**A.** mortality at 50 µg/cm2 [1]: 50 to 100%; mortality at 50 µg/cm2 [2]: 50 to 100%

**Q.** Which mortality at 50 µg/cm2 [1] does the source give for `O=C(NC1CS(=O)(=O)C1)c1cc(NC(=O)[C@H]2[C@H](c3cc(Cl)c(Cl)c(Cl)c3)C2(Cl)Cl)ccc1Cl` (relative stereo) [Molecule F58, trans-2-chloro-5-(2,2-dichloro-3-(3,4,5-trichlorophenyl)cyclopropanecarboxamido)-N-(1,1-dioxidothietan-3-yl)benzamide] here?
**A.** 50 to 100%

**Q.** What about the mortality at 50 µg/cm2 [2] of the same compound?
**A.** 50 to 100%

**Q.** How did the mortality at 50 µg/cm2 [1] turn out when `O=C(NC1CC(F)(F)C1)c1cc(NC(=O)[C@H]2[C@H](c3cc(Cl)cc(C(F)(F)F)c3)C2(Cl)Cl)ccc1Cl` (relative stereo) [Molecule F26, trans-2-Chloro-5-(2,2-dichloro-3-(3-chloro-5-(trifluoromethyl)phenyl)cyclopropanecarboxamido)-N-(3,3-difluorocyclobutyl)benzamide] was run?
**A.** 50 to 100%

**Q.** What about the mortality at 50 µg/cm2 [2] of the same compound?
**A.** 50 to 100%

**Q.** For `N#CC1(NC(=O)c2cc(NC(=O)[C@H]3[C@H](c4ccccc4)C3(Cl)Cl)ccc2Cl)CC1` (relative stereo) [Molecule F38, trans-2-Chloro-N-(1-cyanocyclopropyl)-5-(2,2-dichloro-3-phenylcyclopropanecarboxamido)benzamide], which mortality at 50 µg/cm2 [1] is on record?
**A.** 50 to 100%

**Q.** And the mortality at 50 µg/cm2 [2]?
**A.** 50 to 100%

**Q.** For `N#CC1(NC(=O)c2cc(NC(=O)[C@H]3[C@H](c4ccc(Cl)c(F)c4)C3(Cl)Cl)ccc2Cl)CC1` (relative stereo) [PF2, trans-2-Chloro-N-(1-cyanocyclopropyl)-5-(2,2-dichloro-3-(4-chloro-3-fluorophenyl)cyclopropane-1-carboxamido)benzamide], which mortality at 50 µg/cm2 [1] is on record?
**A.** 50 to 100%

**Q.** And the mortality at 50 µg/cm2 [2]?
**A.** 50 to 100%

**Q.** Which results are given for `O=C(NC1CC(F)(F)C1)c1cc(NC(=O)[C@H]2[C@H](c3cc(Cl)c(Cl)c(Cl)c3)C2(Cl)Cl)ccc1Cl` (relative stereo) [Molecule F6, trans-2-Chloro-5-(2,2-dichloro-3-(3,4,5-trichlorophenyl)cyclopropanecarboxamido)-N-(3,3-difluorocyclobutyl)benzamide]?
**A.** mortality at 50 µg/cm2 [1]: 50 to 100%; mortality at 50 µg/cm2 [2]: 50 to 100%

**Q.** What does the source list for `O=C(NC1CC(F)(F)C1)c1cc(NC(=O)[C@H]2[C@H](c3cc(Br)cc(Br)c3)C2(Cl)Cl)ccc1Cl` (relative stereo) [Molecule F28, trans-2-Chloro-5-(2,2-dichloro-3-(3,5-dibromophenyl)cyclopropanecarboxamido)-N-(3,3-difluorocyclobutyl)benzamide]?
**A.** mortality at 50 µg/cm2 [1]: 50 to 100%; mortality at 50 µg/cm2 [2]: 50 to 100%

**Q.** How did the mortality at 50 µg/cm2 [1] turn out when `N#CC1(NC(=O)c2cc(NC(=O)[C@H]3[C@H](c4cc(C(F)(F)F)cc(C(F)(F)F)c4)C3(Cl)Cl)ccc2Cl)CC1` (relative stereo) [Molecule F25, trans-5-(3-(3,5-Bis(trifluoromethyl)phenyl)-2,2-dichlorocyclopropanecarboxamido)-2-chloro-N-(1-cyanocyclopropyl)benzamide] was run?
**A.** 50 to 100%

**Q.** What about the mortality at 50 µg/cm2 [2] of the same compound?
**A.** 50 to 100%

**Q.** With `CN(C(=O)c1cc(NC(=O)[C@H]2[C@H](c3cc(Cl)cc(Cl)c3)C2(Cl)Cl)ccc1Cl)C1(C#N)CC1` (relative stereo) [PF20, trans-2-Chloro-N-(1-cyanocyclopropyl)-5-(2,2-dichloro-3-(3,5-dichloro-phenyl)cyclopropane-1-carboxamido)-N-methylbenzamide] as the compound, how does the mortality at 50 µg/cm2 [1] read?
**A.** 50 to 100%

**Q.** And the mortality at 50 µg/cm2 [2]?
**A.** 50 to 100%

**Q.** How did the mortality at 50 µg/cm2 [1] turn out when `N#CC1(NC(=O)c2cc(NC(=O)[C@H]3[C@H](c4ccc(C(F)(F)F)cc4)C3(Cl)Cl)ccc2Cl)CC1` (relative stereo) [Molecule F23, trans-2-Chloro-N-(1-cyanocyclopropyl)-5-(2,2-dichloro-3-(4-(trifluoromethyl)phenyl)cyclopropanecarboxamido)benzamide] was run?
**A.** 50 to 100%

**Q.** What about the mortality at 50 µg/cm2 [2] of the same compound?
**A.** 50 to 100%

**Q.** `O=C(NN1CCOCC1)c1cc(NC(=O)[C@H]2[C@H](c3cc(Cl)cc(Cl)c3)C2(Cl)Cl)ccc1Cl` (relative stereo) [Molecule F52, trans-2-Chloro-5-(2,2-dichloro-3-(3,5-dichlorophenyl)cyclopropanecarboxamido)-N-morpholinobenzamide] was tested. Which mortality at 50 µg/cm2 [1] did it give?
**A.** 50 to 100%

**Q.** And the mortality at 50 µg/cm2 [2]?
**A.** 50 to 100%

**Q.** What does the source list for `O=C(NC1CNC1)c1cc(NC(=O)[C@H]2[C@H](c3cc(Cl)cc(Cl)c3)C2(Cl)Cl)ccc1Cl` (relative stereo) [Molecule F59, trans-N-(azetidin-3-yl)-2-chloro-5-(2,2-dichloro-3-(3,5-dichlorophenyl)cyclopropanecarboxamido) benzamide]?
**A.** mortality at 50 µg/cm2 [1]: 50 to 100%; mortality at 50 µg/cm2 [2]: 50 to 100%

**Q.** For `N#CC1(NC(=O)c2cc(NC(=O)[C@H]3[C@H](c4cc(Cl)c(F)c(Cl)c4)C3(Cl)Cl)ccc2Cl)CC1` (relative stereo) [Molecule F31, trans-2-Chloro-N-(1-cyanocyclopropyl)-5-(2,2-dichloro-3-(3,5-dichloro-4-fluorophenyl)cyclopropanecarboxamido)benzamide], which mortality at 50 µg/cm2 [1] is on record?
**A.** 50 to 100%

**Q.** What about the mortality at 50 µg/cm2 [2] of the same compound?
**A.** 50 to 100%

**Q.** What does the source list for `Cc1cc(Cl)cc([C@H]2[C@H](C(=O)Nc3ccc(Cl)c(C(=O)NC4(C#N)CC4)c3)C2(Cl)Cl)c1` (relative stereo) [Molecule F47, trans-2-Chloro-N-(1-cyanocyclopropyl)-5-(2,2-dichloro-3-(3-chloro-5-methylphenyl)cyclopropanecarboxamido)benzamide]?
**A.** mortality at 50 µg/cm2 [1]: 50 to 100%; mortality at 50 µg/cm2 [2]: 50 to 100%

**Q.** For `O=C(NC1CN(C(=O)C(F)(F)F)C1)c1cc(NC(=O)[C@H]2[C@H](c3cc(Cl)cc(Cl)c3)C2(Cl)Cl)ccc1Cl` (relative stereo) [Molecule F60, trans-2-chloro-5-(2,2-dichloro-3-(3,5-dichlorophenyl)cyclopropanecarboxamido)-N-(1-(2,2,2-trifluoroacetyl)azetidin-3-yl)benzamide], which mortality at 50 µg/cm2 [1] is on record?
**A.** 50 to 100%

**Q.** And the mortality at 50 µg/cm2 [2]?
**A.** 50 to 100%

**Q.** Which results are given for `O=C(NC1CCSC1)c1cc(NC(=O)[C@H]2[C@H](c3cc(Cl)cc(Cl)c3)C2(Cl)Cl)ccc1Cl` (relative stereo) [Molecule F7, trans-2-Chloro-5-(2,2-dichloro-3-(3,5-dichlorophenyl)cyclopropanecarboxamido)-N-(tetrahydrothiophen-3-yl)benzamide]?
**A.** mortality at 50 µg/cm2 [1]: 50 to 100%; mortality at 50 µg/cm2 [2]: 50 to 100%

**Q.** Which results are given for `O=C(NC1CC(F)(F)C1)c1cc(NC(=O)[C@H]2[C@H](c3ccccc3)C2(Cl)Cl)ccc1Cl` (relative stereo) [Molecule F37, trans-2-Chloro-5-(2,2-dichloro-3-phenylcyclopropanecarboxamido)-N-(3,3-difluorocyclobutyl)benzamide]?
**A.** mortality at 50 µg/cm2 [1]: 50 to 100%; mortality at 50 µg/cm2 [2]: 50 to 100%
